Patent publication US4206215A, “Antimicrobial bis-[4-(substituted-amino)-1-pyridinium]alkanes” (Sterling Drug Inc., priority 1977, dated 1980)

Legend:
K. pneum. 39645 = experiment: In vitro antibacterial activity, MIC (modified Autotiter method); assay type: cell-based, Klebsiella pneumoniae; settings: Klebsiella pneumoniae, 20 h, 18-20 hours at 37° C.; read-out: MIC K. pneum. 39645
How it was run: (§1)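 Compounds are diluted serially by twofold steps in sterile water using the Autotiter, beginning with a 1,000 mcg./ml. solution; addition of inoculated double-strength semisynthetic medium with glucose yields final concentrations between 500 and 0.06 mcg./ml.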

[1] = tested on: Herpes simplex type 2 virus; experiment: Virucidal activity in vitro (plaque inhibition test); assay type: cell-based; settings: 2 mg. of test compound on growth medium
Experimental: Virucidal activity of representative examples against Herpes simplex type 2 virus was determined in vitro employing a procedure similar to the plaque inhibition test for detection of specific inhibitors of DNA-containing viruses published by E. C. Herrmann, Jr., Proc. Soc. Exp. Biol. Med. 107, 142 (1961) wherein 2 mg. of the test compound was placed on the surface of the growth medium.

E. coli AB1932-1 = experiment: In vitro antibacterial activity, MIC (modified Autotiter method); assay type: cell-based, Escherichia coli; settings: Escherichia coli, AB19321, 20 h, 18-20 hours at 37° C.; read-out: MIC E. coli AB1932-1
How it was run: as §1

E. coli Vogel = experiment: as above; assay type: cell-based, Escherichia coli; settings: Escherichia coli, 20 h, 18-20 hours at 37° C.; read-out: MIC E. coli Vogel
How it was run: as §1

E. coli 100/B22 = experiment: as above; assay type: cell-based, Escherichia coli; settings: Escherichia coli, 100/B22, 20 h, 18-20 hours at 37° C.; read-out: MIC E. coli 100/B22
How it was run: as §1

S. Aureus Smith = experiment: as above; assay type: cell-based, Staphylococcus aureus; settings: Staphylococcus aureus, 20 h, 18-20 hours at 37° C.; read-out: MIC S. Aureus Smith
How it was run: as §1

S. pyogen. C203 = experiment: as above; assay type: cell-based, Streptococcus pyogenes; settings: 18-20 hours at 37° C.; for MIC: Streptococcus pyogenes, 20 h, read-out: MIC S. pyogen. C203
How it was run: as §1

Ps. aerug. MGH-2 = experiment: as above; assay type: cell-based, Pseudomonas aeruginosa; settings: Pseudomonas aeruginosa, 20 h, 18-20 hours at 37° C.; read-out: MIC Ps. aerug. MGH-2
How it was run: as §1

P. mirab. MGH-1 = experiment: as above; assay type: cell-based, Proteus mirabilis; settings: Proteus mirabilis, 20 h, 18-20 hours at 37° C.; read-out: MIC P. mirab. MGH-1
How it was run: as §1

C. albicans 10231 = experiment: In vitro antifungal activity, MIC (modified Autotiter method); assay type: cell-based, Candida albicans; settings: Candida albicans, 10231, 20 h, 18-20 hours at 37° C.; read-out: MIC C. albicans 10231
How it was run: as §1

C. albicans Wisc. = experiment: as above; assay type: cell-based, Candida albicans; settings: Candida albicans, 20 h, 18-20 hours at 37° C.; read-out: MIC C. albicans Wisc.
How it was run: as §1

A. niger 16404 = experiment: as above; assay type: cell-based, Aspergillus niger; settings: 18-20 hours at 37° C.; for MIC: Aspergillus niger, 16404, 20 h, read-out: MIC A. niger 16404
How it was run: as §1

T. menta. 9129 = experiment: as above; assay type: cell-based, Trichophyton mentagrophytes; settings: Trichophyton mentagrophytes, 20 h, 18-20 hours at 37° C.; read-out: MIC T. menta. 9129
How it was run: as §1

SMILES	MIC (K. pneum. 39645)	Virucidal activity against Herpes simplex type 2 virus [1]	MIC (E. coli AB1932-1)	MIC (E. coli Vogel)	MIC (E. coli 100/B22)	MIC (S. Aureus Smith)	MIC (S. pyogen. C203)	MIC (Ps. aerug. MGH-2)	MIC (P. mirab. MGH-1)	MIC (C. albicans 10231)	MIC (C. albicans Wisc.)	MIC (A. niger 16404)	MIC (T. menta. 9129)	MIC S. pyogen. C203 (S. pyogen. C203)	MIC A. niger 16404 (A. niger 16404)
Clc1ccc(Nc2cc[n+](CCCCCCC[n+]3ccc(Nc4ccc(Cl)cc4)cc3)cc2)cc1 [Example 81, 1,7-bis-[4-(p-chlorophenylamino)-1-pyridinium]heptane dibromide]	> 125 µg/mL	active	125 µg/mL	3.9 µg/mL	3.9 µg/mL	0.98 µg/mL	0.49 µg/mL	> 125 µg/mL	> 125 µg/mL	31.3 µg/mL	31.3 µg/mL	31.3 µg/mL	7.8 µg/mL		
CCCCC(CC)CNc1cc[n+](CCCCCCCCC[n+]2ccc(NCC(CC)CCCC)cc2)cc1 (centres unmarked) [Example 57, 1,9-bis-[4-(2-ethylhexylamino)-1-pyridinium]nonane dibromide]	7.8 µg/mL	active	0.98 µg/mL	0.98 µg/mL	0.98 µg/mL	0.31 µg/mL	0.625 µg/mL	125 µg/mL	125 µg/mL	3.9 µg/mL	3.9 µg/mL	15.6 µg/mL	0.98 µg/mL		
c1c[n+](CCCCCCC[n+]2ccc(NC3CCCCC3)cc2)ccc1NC1CCCCC1 [Example 37, 1,7-bis-[4-(cyclohexylamino)-1-pyridinium]heptane dibromide]	> 125 µg/mL	active	125 µg/mL	> 125 µg/mL	> 125 µg/mL	7.8 µg/mL	7.8 µg/mL	125 µg/mL	> 125 µg/mL	125 µg/mL	125 µg/mL	> 125 µg/mL	15.6 µg/mL		
CCCCCCCNc1cc[n+](CCCCCCC[n+]2ccc(NCCCCCCC)cc2)cc1 [Example 21, 1,7-bis-[4-(heptylamino)-1-pyridinium]heptane dibromide]	3.9 µg/mL	active	1.95 µg/mL	1.95 µg/mL	1.95 µg/mL	0.24 µg/mL	0.98 µg/mL	125 µg/mL	125 µg/mL	3.9 µg/mL	3.9 µg/mL	15.6 µg/mL	3.9 µg/mL		
c1c[n+](CCCC[n+]2ccc(NC3CCCCC3)cc2)ccc1NC1CCCCC1 [Example 34, 1,4-bis-[4-(cyclohexylamino)-1-pyridinium]butane dibromide]	> 500 µg/mL	inactive	125 µg/mL	125 µg/mL	125 µg/mL	125 µg/mL	31.3 µg/mL	> 500 µg/mL	> 500 µg/mL	500 µg/mL	500 µg/mL	500 µg/mL	125 µg/mL		
CCCCCCNc1cc[n+](CCCC[n+]2ccc(NCCCCCC)cc2)cc1 [Example 16, 1,4-bis-[4-(hexylamino)-1-pyridinium]butane dibromide]	> 125 µg/mL	inactive	62.5 µg/mL	125 µg/mL	125 µg/mL	7.8 µg/mL	1.95 µg/mL	> 250 µg/mL	> 125 µg/mL	125 µg/mL	125 µg/mL	125 µg/mL	15.6 µg/mL		
CCCCCCCNc1cc[n+](CCCCCC[n+]2ccc(NCCCCCCC)cc2)cc1 [Example 61, 1,6-bis-[4-(heptylamino)-1-pyridinium]hexane dibromide]	6.3 µg/mL	active	1.6 µg/mL	3.1 µg/mL	1.6 µg/mL	0.2 µg/mL		125 µg/mL	> 250 µg/mL	6.25 µg/mL	6.25 µg/mL		3.13 µg/mL	0.4 µg/mL	25 µg/mL
Clc1ccc(Nc2cc[n+](CCCCCCCCC[n+]3ccc(Nc4ccc(Cl)cc4)cc3)cc2)cc1 [Example 82, 1,9-bis-[4-(p-chlorophenylamino)-1-pyridinium]nonane dibromide]	7.8 µg/mL	active	0.98 µg/mL	0.98 µg/mL	1.95 µg/mL	0.625 µg/mL	0.24 µg/mL	125 µg/mL	> 125 µg/mL	3.9 µg/mL	3.9 µg/mL	15.6 µg/mL	3.9 µg/mL		
